Assay results reported in ChEMBL document CHEMBL5331106, “Investigation into the Mechanism of Action of the Tuberculosis Drug Candidate SQ109 and Its Metabolites and Analogues in Mycobacteria” (J Med Chem, 2023).

What was measured:
[1] = tested on: Mycobacterium tuberculosis; assay: Antimycobacterial activity against Mycobacterium tuberculosis HN878 assessed as inhibition of mycobacterial growth incubated for 5 days; assay type: functional, organism-based; settings: HN878, 120 h
Cell membrane = assay: Uncoupling activity in Escherichia coli inverted membrane vesicles assessed as collapse of pH gradient by measuring increase in ACMA fluorescence intensity by fluorometric analysis; assay type: subcellular
[2] = target: T1, Undecaprenyl-diphosphatase (Escherichia coli (strain K12), UniProt P60932); assay: Inhibition of UppP in Escherichia coli using FPP as substrate pretreated for 20 mins followed by FPP addition and measured after 60 mins by malachite green based assay
T1 sequence (P60932 whole entry): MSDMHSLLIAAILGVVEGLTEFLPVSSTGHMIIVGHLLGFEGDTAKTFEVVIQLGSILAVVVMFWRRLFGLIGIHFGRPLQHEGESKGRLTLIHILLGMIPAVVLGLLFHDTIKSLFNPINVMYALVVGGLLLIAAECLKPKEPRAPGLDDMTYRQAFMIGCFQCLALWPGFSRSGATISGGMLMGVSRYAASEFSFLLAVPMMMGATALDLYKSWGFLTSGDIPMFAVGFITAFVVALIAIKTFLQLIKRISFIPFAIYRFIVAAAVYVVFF

[3] = tested on: Mycolicibacterium smegmatis; assay: Rescue fold, ratio of IC50 for antimycobacterial activity against Mycobacterium smegmatis in presence of 100 uM menaquinone-4 to IC50 for antimycobacterial activity against Mycobacterium smegmatis; assay type: functional
[4] = tested on: Mycolicibacterium smegmatis; assay: Antimycobacterial activity against Mycobacterium smegmatis assessed as inhibition of mycobacterial growth incubated for 48 hrs; assay type: functional, organism-based
[5] = tested on: Mycolicibacterium smegmatis; assay: Rescue fold, ratio of IC50 for antimycobacterial activity against Mycobacterium smegmatis in presence of 100 uM menaquinone-7 to IC50 for antimycobacterial activity against Mycobacterium smegmatis; assay type: functional
[6] = tested on: Mycolicibacterium smegmatis; assay: Rescue fold, ratio of IC50 for antimycobacterial activity against Mycobacterium smegmatis in presence of 50 uM undecaprenyl phosphate to IC50 for antimycobacterial activity against Mycobacterium smegmatis; assay type: functional
[7] = tested on: Mycobacterium tuberculosis; assay: Antimycobacterial activity against Mycobacterium tuberculosis HN878 assessed as inhibition of mycobacterial growth incubated for 5 days in presence of 50 uM undecaprenyl phosphate; assay type: functional, organism-based; settings: HN878, 120 h
[8] = tested on: Mycolicibacterium smegmatis; assay: Antimycobacterial activity against Mycobacterium smegmatis assessed as inhibition of mycobacterial growth incubated for 48 hrs in presence of 50 uM undecaprenyl phosphate; assay type: functional, organism-based
[9] = tested on: Mycolicibacterium smegmatis; assay: Antimycobacterial activity against Mycobacterium smegmatis assessed as inhibition of mycobacterial growth incubated for 48 hrs in presence of 50 uM menaquinone-4; assay type: functional, organism-based
[10] = tested on: Mycolicibacterium smegmatis; assay: Antimycobacterial activity against Mycobacterium smegmatis assessed as inhibition of mycobacterial growth incubated for 48 hrs in presence of 50 uM Upp; assay type: functional, organism-based

Row | Structure (SMILES) | IC50 [1] [µM] | IC50 (Cell membrane) [µM] | IC50 [2] [µM] | Ratio IC50 [3] | IC50 [4] [µM] | Ratio IC50 [5] | Ratio IC50 [6] | IC50 [7] [µM] | IC50 [8] [µM] | IC50 [9] [µM] | IC50 [10] [µM]
1 | CC(C)=CCC/C(C)=C/CCNCCNC1C2CC3CC(C2)CC1C3 (stereo not drawn) | 0.82 | 1.9 | 16 | 2 | 2.7 | 2 | 18 | 8 | 48 | – | –
2 | CC(C)=CCC/C(C)=C/C=O [CITRAL] | > 25 | > 1000 | – | – | > 500 | – | – | – | – | – | –
3 | NC1C2CC3CC(C2)CC1C3 (stereo not drawn) | > 25 | > 1000 | – | – | > 500 | – | – | – | – | – | –
4 | CCCCc1ccc(-c2nc(C)c(/C(C)=N/NC(=N)N)s2)cc1 | – | – | – | – | 11 | – | 7.8 | – | 89 | 9.8 | –
5 | O=C1C2CC3CC(C2)CC1C3 | > 25 | > 1000 | – | – | > 500 | – | – | – | – | – | –
6 | CC(C)=CCC/C(C)=C/CNCCNC1[C@H]2C[C@@H]3C[C@H](C2)[C@@H](O)[C@H]1C3 (stereo partly drawn) | 4.2 | 12 | – | – | 11 | – | 2.2 | – | 24 | – | –
7 | CC(C)=CCC/C(C)=C/CNCCN | > 25 | 77 | – | – | > 500 | – | – | – | – | – | –
8 | CC(C)=CCC/C(C)=C/CNCCNC1C2CC3CC1CC(C2)C3O (stereo not drawn) | > 25 | 19 | – | – | 42 | – | 1.6 | – | 67 | – | –
9 | C/C(=C\CNCCNC1C2CC3CC(C2)CC1C3)CCC(=O)C(C)C (stereo not drawn) | 14 | 15 | – | – | 26 | – | 2.4 | – | 63 | – | –
10 | CC(C)CCCC(C)CCNCCNC1C2CC3CC(C2)CC1C3 (stereo not drawn) | 1.7 | 5.2 | 15 | – | 9.3 | – | 1 | 16 | 9.1 | – | –
11 | NCCNC1C2CC3CC(C2)CC1C3 (stereo not drawn) | > 25 | 130 | – | – | > 500 | – | – | – | – | – | –
12 | CC(C)=CCCC1(C)CC=NO1 (stereo not drawn) | > 25 | > 1000 | – | – | > 500 | – | – | – | – | – | –
13 | c1ccc(CCNC2CCCc3c2[nH]c2ccc(C4CCCCC4)cc32)cc1 (stereo not drawn) | – | – | – | – | 14 | – | – | – | 56 | – | 14
14 | CC(C)=CCC/C(C)=C/C(C)(C)NCCNC1C2CC3CC(C2)CC1C3 (stereo not drawn) | 0.61 | 1.1 | 37 | – | 1.9 | – | 23 | 8.7 | 43 | – | –
15 | C/C(=C\CC/C(C)=C/CNCCNC1C2CC3CC(C2)CC1C3)CO (stereo not drawn) | > 16 | 17 | – | – | 20 | – | 1.2 | – | 24 | – | –
16 | CC(C)=CCC/C(C)=C/CNCCNC1C2CC3CC1CC(O)(C3)C2 (stereo not drawn) | > 25 | 18 | – | – | 42 | – | 1.4 | – | 57 | – | –
17 | CC(C)=CCC/C(C)=C/CN | > 25 | 307 | – | – | > 500 | – | – | – | – | – | –
18 | CC(C)=CCC/C(C)=C/CNCCOC1C2CC3CC(C2)CC1C3 (stereo not drawn) | 0.07 | 1.2 | 21 | – | 1.3 | – | 9 | 0.54 | 11 | – | –
19 | CC(C)=CCC/C(C)=C/C(=O)O | > 25 | > 1000 | – | – | > 500 | – | – | – | – | – | –
20 | CCCCCCCCCCCNCCNC1C2CC3CC(C2)CC1C3 (stereo not drawn) | 1.9 | 0.87 | 18 | – | 3.9 | – | 2.3 | 24 | 8.9 | – | –
21 | CC(C)=CCC/C(C)=C/C=N\O | > 25 | > 1000 | – | – | > 500 | – | – | – | – | – | –
22 | CC(C)=CCC/C(C)=C/COCCNC1C2CC3CC(C2)CC1C3 (stereo not drawn) | 1.3 | 55 | 91 | – | 7.3 | – | 1.3 | 2.8 | 9.8 | – | –
23 | CC(C)=CCC/C(C)=C/CNCCNC1C2CC3CC(C2)CC1(O)C3 (stereo not drawn) | 0.81 | 9.1 | – | – | 5 | – | 3 | – | 15 | – | –
24 | CC(C)=CCC/C(C)=C/CCNCCNC1C2CC3CC1CC(F)(C3)C2 (stereo not drawn) | 1.5 | 5.5 | 153 | – | 8 | – | 4.8 | 8.8 | 38 | – | –
25 | ON=C1C2CC3CC(C2)CC1C3 | > 25 | > 1000 | – | – | > 500 | – | – | – | – | – | –
